Data set [1] relates to Liver microsome. Description: Intrinsic clearance in rat liver microsomes. It counts as ADME. A general note: Liver microsomes are vesicles of endoplasmic reticulum, rich in cytochrome P450 enzymes.
Data set [2] has as its system Rattus norvegicus. Nature of the data set: Ex vivo binding affinity to histamine H3 receptor in rat cerebral cortex using [3H]-R-alpha-ethylhistamine at 3 mg/kg, po after 3 hrs by HPLC analysis. The data set is classed as functional.
Data set [3] has as its target T1, Histamine H3 receptor (Rattus norvegicus, UniProt Q9QYN8). Description: Displacement of [3H]-R-alpha-ethylhistamine from histamine H3 receptor in rat cerebral cortical tissue membranes after 45 mins by liquid scintillation spectrometry. (In general: Loss of bound radioactivity is the signal in a displacement assay; it reports binding, not function.)
Data set [4] addresses Histamine H3 receptor (Homo sapiens, UniProt Q9Y5N1). Description: Antagonist activity at human histamine H3 receptor expressed in CHOK1 cells assessed as inhibition of GTPgammaS binding. It counts as functional, cell-based, CHO-K1. Background: GTPγS is a poorly hydrolysed GTP analogue; its binding reports G protein activation.
Data set [5] has as its system Rattus norvegicus. Nature of the data set: Reversal of RAMH-induced dipsogenia in Lister Hooded rat at 3 mg/kg, po treated 2 hrs before RAMH challenge measured after 1 hr. The data set is classed as functional.
Data set [6] has as its system Rattus norvegicus. Description: Ex vivo binding affinity to histamine H3 receptor in po dosed rat cerebral cortex using [3H]-R-alpha-ethylhistamine after 2 hrs by HPLC analysis. The data set is classed as functional.
The test system of data set [7] is Rattus norvegicus. Description: Ex vivo binding affinity to histamine H3 receptor in rat cerebral cortex using [3H]-R-alpha-ethylhistamine at 0.3 mg/kg, po after 3 hrs by HPLC analysis. The data set is classed as functional.
Data set [8] deals with Rattus norvegicus. Description: Reversal of RAMH-induced dipsogenia in po dosed Lister Hooded rat treated 2 hrs before RAMH challenge measured after 1 hr. The data set is classed as functional.
Data set [9] can be described thus: Ratio of drug level in brain to blood in rat at 3 mg/kg, po. Also on record: dose 3 mg/kg, route oral. It counts as ADME, organism-based.
The test system of data set [10] is Blood. Description: Drug level in rat blood at 3 mg/kg, po. It counts as ADME, organism-based. Also on record: dose 3 mg/kg, route oral. The note with it: in vivo, read-out: Drug uptake.
Data set [11] can be described thus: Ratio of drug level in brain to blood in rat at 3 mg/kg, po after 1 hr. The data set is classed as ADME, organism-based. Also noted: dose 3 mg/kg, route oral.
Data set [12] relates to Liver microsome. Nature of the data set: Intrinsic clearance in human liver microsomes. The data set is classed as ADME.
A short description of data set [13]: Time dependent inhibition of CYP450 (unknown origin). It counts as ADME, Homo sapiens.
Data set [14] deals with hERG (KCNH2) (Homo sapiens, UniProt Q12809). Nature of the data set: Inhibition of human ERG at 10 uM by patch clamp experiment.
The target in data set [15] is Histamine H4 receptor (Homo sapiens, UniProt Q9H3N8). Nature of the data set: Binding affinity to human histamine H4 receptor.
Data set [16] addresses Histamine H1 receptor (Homo sapiens, UniProt P35367). Description: Binding affinity to human histamine H1 receptor.
Data set [17] has as its target Histamine H2 receptor (Homo sapiens, UniProt P25021). Nature of the data set: Binding affinity to human histamine H2 receptor.
Data set [18] concerns the target T1, Histamine H3 receptor. Nature of the data set: Displacement of [3H]-R-alpha-ethylhistamine from rat histamine H3 receptor expressed in HEK293 cells after 45 mins by liquid scintillation spectrometry. It counts as cell-based.

Each structure is given as a SMILES string.

Sequence of Histamine H3 receptor (Homo sapiens, UniProt Q9Y5N1) (Q9Y5N1 whole entry): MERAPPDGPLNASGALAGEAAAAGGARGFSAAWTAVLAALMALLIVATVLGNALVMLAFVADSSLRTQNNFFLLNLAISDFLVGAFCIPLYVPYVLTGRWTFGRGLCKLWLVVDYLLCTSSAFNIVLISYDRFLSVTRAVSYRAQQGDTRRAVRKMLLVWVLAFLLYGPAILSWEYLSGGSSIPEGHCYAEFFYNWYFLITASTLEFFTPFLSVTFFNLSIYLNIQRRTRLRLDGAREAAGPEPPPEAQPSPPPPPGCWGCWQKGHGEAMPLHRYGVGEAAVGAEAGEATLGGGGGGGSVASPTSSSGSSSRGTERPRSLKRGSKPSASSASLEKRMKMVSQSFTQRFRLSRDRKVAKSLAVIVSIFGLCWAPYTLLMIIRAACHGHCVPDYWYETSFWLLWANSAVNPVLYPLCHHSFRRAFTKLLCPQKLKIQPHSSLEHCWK
T1 sequence (Q9QYN8 whole entry): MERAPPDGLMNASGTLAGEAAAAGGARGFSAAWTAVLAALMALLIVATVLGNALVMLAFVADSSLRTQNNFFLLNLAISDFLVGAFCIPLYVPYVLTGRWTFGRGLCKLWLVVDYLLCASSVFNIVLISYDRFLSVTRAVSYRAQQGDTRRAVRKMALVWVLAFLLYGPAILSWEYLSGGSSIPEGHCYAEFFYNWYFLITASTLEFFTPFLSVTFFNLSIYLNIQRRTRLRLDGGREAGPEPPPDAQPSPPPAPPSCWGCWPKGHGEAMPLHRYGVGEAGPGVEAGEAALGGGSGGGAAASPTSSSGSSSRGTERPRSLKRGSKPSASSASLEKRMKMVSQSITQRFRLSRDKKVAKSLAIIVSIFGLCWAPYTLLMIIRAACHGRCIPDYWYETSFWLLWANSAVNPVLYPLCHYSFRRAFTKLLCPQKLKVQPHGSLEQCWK
Sequence of Histamine H4 receptor (Q9H3N8 whole entry): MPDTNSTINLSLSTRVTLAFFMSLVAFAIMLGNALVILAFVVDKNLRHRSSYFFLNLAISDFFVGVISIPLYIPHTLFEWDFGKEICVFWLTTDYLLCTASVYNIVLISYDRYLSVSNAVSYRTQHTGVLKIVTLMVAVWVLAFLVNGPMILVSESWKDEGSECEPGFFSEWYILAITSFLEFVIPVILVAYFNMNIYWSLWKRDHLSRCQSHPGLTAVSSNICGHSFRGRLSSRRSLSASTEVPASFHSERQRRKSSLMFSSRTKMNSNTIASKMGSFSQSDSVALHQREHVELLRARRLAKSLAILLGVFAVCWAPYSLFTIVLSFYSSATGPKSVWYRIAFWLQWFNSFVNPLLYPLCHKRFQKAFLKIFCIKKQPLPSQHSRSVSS
Sequence of Histamine H1 receptor (P35367 whole entry): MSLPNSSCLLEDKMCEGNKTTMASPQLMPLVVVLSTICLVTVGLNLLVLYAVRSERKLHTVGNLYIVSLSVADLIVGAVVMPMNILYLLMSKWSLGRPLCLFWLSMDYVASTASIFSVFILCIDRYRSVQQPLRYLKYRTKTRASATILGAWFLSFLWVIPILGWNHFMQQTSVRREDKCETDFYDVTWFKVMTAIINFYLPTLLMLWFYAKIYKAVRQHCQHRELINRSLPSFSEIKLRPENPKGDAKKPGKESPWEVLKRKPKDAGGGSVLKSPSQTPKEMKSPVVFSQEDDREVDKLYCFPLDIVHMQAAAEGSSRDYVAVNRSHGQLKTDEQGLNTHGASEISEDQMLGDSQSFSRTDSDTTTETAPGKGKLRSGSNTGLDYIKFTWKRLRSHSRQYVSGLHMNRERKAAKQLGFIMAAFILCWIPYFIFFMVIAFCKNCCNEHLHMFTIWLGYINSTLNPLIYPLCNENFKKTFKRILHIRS
Sequence of Histamine H2 receptor (P25021 whole entry): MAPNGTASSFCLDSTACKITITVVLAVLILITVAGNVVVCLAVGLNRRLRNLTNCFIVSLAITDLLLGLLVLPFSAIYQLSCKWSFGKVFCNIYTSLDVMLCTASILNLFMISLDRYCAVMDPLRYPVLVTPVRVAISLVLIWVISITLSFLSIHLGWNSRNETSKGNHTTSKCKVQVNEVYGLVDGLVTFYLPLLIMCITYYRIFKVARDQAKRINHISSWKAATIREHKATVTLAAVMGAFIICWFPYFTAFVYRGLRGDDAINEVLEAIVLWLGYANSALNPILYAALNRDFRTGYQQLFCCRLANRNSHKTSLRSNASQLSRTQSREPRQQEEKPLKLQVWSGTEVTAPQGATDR
Sequence of hERG (KCNH2) (Q12809 whole entry): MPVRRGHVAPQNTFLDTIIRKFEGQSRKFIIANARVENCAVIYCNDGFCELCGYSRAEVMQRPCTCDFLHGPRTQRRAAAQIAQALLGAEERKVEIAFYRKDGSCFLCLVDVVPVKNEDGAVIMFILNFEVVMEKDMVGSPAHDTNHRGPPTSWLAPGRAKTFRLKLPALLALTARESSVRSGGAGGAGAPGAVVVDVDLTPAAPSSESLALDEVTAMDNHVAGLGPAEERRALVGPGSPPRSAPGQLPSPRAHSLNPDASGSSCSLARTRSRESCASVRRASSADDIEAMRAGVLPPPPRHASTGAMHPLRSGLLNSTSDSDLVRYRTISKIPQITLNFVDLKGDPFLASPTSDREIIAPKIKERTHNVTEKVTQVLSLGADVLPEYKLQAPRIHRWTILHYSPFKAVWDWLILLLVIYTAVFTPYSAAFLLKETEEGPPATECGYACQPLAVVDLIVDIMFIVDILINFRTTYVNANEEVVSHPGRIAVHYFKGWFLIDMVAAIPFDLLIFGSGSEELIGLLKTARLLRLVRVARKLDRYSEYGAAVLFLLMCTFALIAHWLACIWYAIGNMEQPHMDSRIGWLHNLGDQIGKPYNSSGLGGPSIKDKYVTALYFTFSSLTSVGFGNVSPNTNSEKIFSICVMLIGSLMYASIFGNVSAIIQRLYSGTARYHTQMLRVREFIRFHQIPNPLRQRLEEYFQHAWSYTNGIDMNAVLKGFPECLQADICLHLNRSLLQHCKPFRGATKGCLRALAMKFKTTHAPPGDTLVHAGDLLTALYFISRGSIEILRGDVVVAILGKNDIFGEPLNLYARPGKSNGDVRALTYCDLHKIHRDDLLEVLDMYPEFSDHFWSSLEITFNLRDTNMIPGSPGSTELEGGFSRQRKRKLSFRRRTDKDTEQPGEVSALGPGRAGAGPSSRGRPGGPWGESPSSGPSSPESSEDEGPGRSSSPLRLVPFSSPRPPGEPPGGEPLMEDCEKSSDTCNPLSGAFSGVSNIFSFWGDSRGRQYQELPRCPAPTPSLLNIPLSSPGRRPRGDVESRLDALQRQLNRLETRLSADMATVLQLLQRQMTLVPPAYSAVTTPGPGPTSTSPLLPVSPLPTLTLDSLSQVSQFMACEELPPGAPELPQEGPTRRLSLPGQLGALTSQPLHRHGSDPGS

In data set [1], `NC(=O)c1ccc(Oc2ccc3c(c2)CCN(C2CCC2)CC3)nc1` registered a CLH of less than 3 mL/min/g. Further, the Activity in data set [2] is 81%. The results for the Ki in data set [3] and in [4] were 2 nM and 0.501 nM, respectively.

Take `c1cnn(-c2ccc(Oc3ccc4c(c3)CCN(C3CCC3)CC4)nc2)c1`: the Activity in data set [2] was 73%. For the same molecule, the Ki was 3.16 nM in data set [3] and 0.501 nM in data set [4].

As to `O=C(N1CCOCC1)N1CCC(Oc2ccc3c(c2)CCN(C2CCC2)CC3)CC1`, the Activity is listed as 100% in data set [5] and 43% in data set [2]. The same molecule registered an ED50 in data set [6] of 2 mg/kg.

With `c1cc(-c2ccc(Oc3ccc4c(c3)CCN(C3CCC3)CC4)nc2)[nH]n1`, the Activity in [7] is recorded as 23%. Besides, the inhibition constant Ki in data set [3] is 2.51 nM; in data set [4], 0.251 nM.

`Cc1nc(Oc2ccc3c(c2)CCN(C2CCC2)CC3)ccc1C#N` registered an Activity in data set [2] of 18%. Also, the Ki is 3.98 nM in [3] and 0.2 nM in [4].

The molecule `CCNC(=O)c1ccc(Oc2ccc3c(c2)CCN(C2CCC2)CC3)cn1` came in with an Activity in data set [2] of 62%. Also, the figures for the inhibition constant Ki in data set [3] and in data set [4] were 3.98 nM and 0.631 nM, respectively.

Consider `CNC(=O)c1ccc(Oc2ccc3c(c2)CCN(C2CCC2)CC3)nn1`, for which the ED50 in [8] stood at 0.33 mg/kg; in data set [6], 0.85 mg/kg. The Kp in data set [9] is 2.8. In data set [10], the concentration is 700 nM. The same molecule registered an Activity in data set [2] of 79%. The Ki in [3] is 7.94 nM; in [4], 1.26 nM.

The molecule `CNC(=O)c1ccc(Oc2ccc3c(c2)CCN(C2CCCC2)CC3)nc1` registered an Activity in data set [2] of 61%. Also, the Ki in data set [4] is 0.501 nM.

`CCN(C)C(=O)c1ccc(Oc2ccc3c(c2)CCN(C2CCC2)CC3)nc1` returned a CLH in data set [1] of less than 3 mL/min/g. The values for the Activity in data set [5] and in data set [2] were 94% and 56%, respectively. For the same molecule, the concentration in data set [10] came to 270 nM. Also, the Kp at 1 h in [11] is 1. Further, the Ki is 10 nM in data set [3] and 0.631 nM in data set [4].

As for `c1cnc(Oc2ccc3c(c2)CCN(C2CCC2)CC3)nc1`, the Ki in data set [4] is 2.51 nM.

The molecule `O=C1CCCCN1c1ccc(Oc2ccc3c(c2)CCN(C2CCC2)CC3)nc1` showed an Activity in [2] of 10%. Further, the Ki in data set [3] is 2.51 nM; in data set [4], 0.316 nM.

Take `c1cnc(Oc2ccc3c(c2)CCN(C2CCC2)CC3)cn1`: in data set [4], the inhibitory constant (Ki) was 1.58 nM.

`O=C1C[C@@H](O)CN1c1ccc(Oc2ccc3c(c2)CCN(C2CCC2)CC3)nc1` yielded an Activity in data set [2] of 56%. The values for the Ki in data set [3] and in data set [4] were 1.58 nM and 0.2 nM, respectively.

As to `O=C1CCN1c1ccc(Oc2ccc3c(c2)CCN(C2CCC2)CC3)nc1`, the Activity in data set [7] was determined as 21%. Moreover, the figures for the Ki in [3] and in data set [4] were 0.2 nM and 0.0794 nM, respectively.

As for `O=C(c1ccc(Oc2ccc3c(c2)CCN(C2CCC2)CC3)nc1)N1CCCC1`, the CLH in [1] is less than 3 mL/min/g. In addition, the Activity in [5] is on record as 78%; in data set [2], 65%. Besides, the concentration in [10] is 10 nM. For the same molecule, the Ki is 0.631 nM in [3] and 0.251 nM in data set [4].

`CC(=O)Nc1ccc(Oc2ccc3c(c2)CCN(C2CCC2)CC3)nc1`: the Kp in data set [9] stood at 0.8. Moreover, in data set [10], the concentration amounted to 1200 nM. The same molecule displayed an Activity in [2] of 89%. This molecule yielded an ED50 in [6] of 0.32 mg/kg. Also, the Ki is 1 nM in data set [3] and 0.2 nM in [4].

`c1ccc(Oc2ccc3c(c2)CCN(C2CCC2)CC3)nc1`: the Ki in data set [4] is 0.794 nM.

As to `Cc1nnc(-c2ccc(Oc3ccc4c(c3)CCN(C3CCC3)CC4)nc2)o1`, the results for the ED50 in data set [8] and in data set [6] were 0.05 mg/kg and 0.42 mg/kg, respectively. The Kp in data set [9] was 2.8. In addition, the concentration in data set [10] turned out to be 2700 nM. Also, the Activity in data set [2] is 84%. Also, the Ki in [3] is 0.501 nM; in data set [4], 0.158 nM.

In [7], `CC(=O)c1ccc(Oc2ccc3c(c2)CCN(C2CCC2)CC3)cn1` yielded an Activity of 66%. Besides, the Ki in data set [3] is 0.631 nM; in [4], 0.1 nM.

Regarding `c1ccc(Oc2ccc3c(c2)CCN(C2CCC2)CC3)cc1`, the Ki in [4] was 3.16 nM.

`Cc1noc(C)c1-c1ccc(Oc2ccc3c(c2)CCN(C2CCC2)CC3)nc1` registered an Activity in [2] of 48%. For the same molecule, the Ki in [3] was 2.51 nM; in data set [4] it was 0.501 nM.

For the molecule `CNC(=O)c1ccc(Oc2ccc3c(c2)CCN(C2CCC2)CC3)cc1`, the Kp in [9] was 2.5. Moreover, the concentration in [10] came out at 540 nM. The same molecule returned an Activity in data set [2] of 68%. Moreover, the inhibition constant (Ki) in data set [3] is 5.01 nM; in data set [4], 0.501 nM.

For the molecule `CNC(=O)c1ccc(Oc2ccc3c(c2)CCN(C2CCC2)CC3)cn1`, the figures for the ED50 in [8] and in data set [6] were 0.25 mg/kg and 0.43 mg/kg, respectively. Besides, the Kp in data set [9] came to 3.4. For the same molecule, the concentration in [10] came out at 570 nM. Also, in data set [2], the Activity worked out at 82%. Besides, the figures for the Ki in data set [3] and in data set [4] were 3.98 nM and 0.501 nM, respectively.

Take `CNC(=O)c1cnc(Oc2ccc3c(c2)CCN(C2CCC2)CC3)cn1`: the CLH was 1.2 mL/min/g in data set [12] and 1.4 mL/min/g in [1]. The IC50 in data set [13] was more than 10000 nM. Besides, in data set [14], the inhibition at 10 µM is less than 10%. Further, the Ki in data set [15] was more than 3160 nM; in data set [16] it was 1580 nM; in data set [17] it was more than 3160 nM; in data set [18], 1.12 nM; in [3] it was 0.832 nM. Besides, the ED50 in data set [8] is 0.02 mg/kg; in data set [6] it was 0.04 mg/kg. The concentration in data set [10] was determined as 1120 nM. In data set [2], this molecule returned an Activity of 82%.

In data set [1], `CC(C)NC(=O)c1ccc(Oc2ccc3c(c2)CCN(C2CCC2)CC3)nc1` came in with a CLH of less than 3 mL/min/g. Moreover, in data set [7], the Activity worked out at 19%. The results for the inhibitory constant (Ki) in [3] and in data set [4] were 0.631 nM and 0.126 nM, respectively.

In data set [7], `O=C1OCCN1c1ccc(Oc2ccc3c(c2)CCN(C2CCC2)CC3)nc1` gave an Activity of 44%. Further, the figures for the Ki in data set [3] and in data set [4] were 0.794 nM and 0.158 nM, respectively.

In [2], `CN1CCN(c2ccc(Oc3ccc4c(c3)CCN(C3CCC3)CC4)nc2)C1=O` returned an Activity of 81%. Besides, the ED50 in data set [6] was found to be 1.9 mg/kg. Also, the Ki is 1 nM in data set [3] and 0.1 nM in data set [4].

With `O=C1CCCN1c1ccc(Oc2ccc3c(c2)CCN(C2CCCC2)CC3)nc1`, the values for the ED50 in data set [8] and in [6] were 0.04 mg/kg and 0.1 mg/kg, respectively. Moreover, the Kp in [9] amounted to 1. Moreover, in data set [10], the concentration stood at 550 nM. Further, in [2], the Activity was 88%. The values for the Ki in data set [3] and in data set [4] were 0.794 nM and 0.126 nM, respectively.

The molecule `CC1CCC(=O)N1c1ccc(Oc2ccc3c(c2)CCN(C2CCC2)CC3)nc1` (stereo not given) showed an Activity in [2] of 52%. For the same molecule, the Ki in data set [3] was 2.51 nM; in [4], 0.316 nM.

Take `c1cncc(Oc2ccc3c(c2)CCN(C2CCC2)CC3)c1`: the Ki in data set [4] was 2.51 nM.

By Ki is commonly meant a measure of affinity in units of concentration, obtained from inhibition or displacement. A word on the ED50: it is the dose that gives a 50% effect, or the effect in half of the subjects. Usually Kp stands for the ratio of the level in a tissue or fluid to that in plasma or blood. Broadly, the IC50 is the concentration needed to halve the response being measured. Low readings indicate inhibition by little substance, high ones a need for much substance. Usually inhibition stands for the relative decrease from the control value, in per cent.

For the origin of these results see ChEMBL document CHEMBL3091402, “Identification of clinical candidates from the benzazepine class of histamine H3 receptor antagonists” (Bioorg Med Chem Lett, 2013).
